Experimental data taken from ChEMBL document CHEMBL3045752, “Sideroxylin and 8-demethylsideroxylin from Eucalyptus saligna (Myrtaceae)” (2001).

Columns and labels:
Assay type in all cases: functional
Spodoptera exigua = assay: Antifeedant activity against Spodoptera exigua final stadium […] at 100 ppm by glass-fiber choice assay
Heliothis virescens = assay: Antifeedant activity against Heliothis virescens (tobacco budworm) final stadium […] at 100 ppm by glass-fiber choice assay
Locusta migratoria = assay: Antifeedant activity against Locusta migratoria final stadium nymphs at 100 ppm by glass-fiber choice assay

Question: Which results are given for `COc1cc2oc(-c3ccc(O)cc3)cc(=O)c2c(O)c1C` [8-DEMETHYLSIDEROXYLIN]?
Answer: AFI (Spodoptera exigua): 8.9%; AFI (Heliothis virescens): 7.3%; AFI (Locusta migratoria): 1.9%

Question: How did the AFI (Spodoptera exigua) turn out when `COc1cc(/C=C/C=O)ccc1O` [CONIFERYL ALDEHYDE] was run?
Answer: 4%

Question: And the AFI (Heliothis virescens)?
Answer: 2.2%

Question: What about the AFI (Locusta migratoria) of the same compound?
Answer: 4.5%

Question: For `COc1c(C)c(O)c2c(=O)cc(-c3ccc(O)cc3)oc2c1C` [SIDEROXYLIN], which AFI (Spodoptera exigua) is on record?
Answer: 21.2%

Question: What about the AFI (Heliothis virescens) of the same compound?
Answer: 19.6%

Question: What about the AFI (Locusta migratoria) of the same compound?
Answer: 24.2%
